From patent publication US9656963B2 (BRISTOL-MYERS SQUIBB COMPANY, priority 2012, dated 2017)

Biological target: T1, hGPR40 (Homo sapiens, UniProt O14842)
T1 construct: 3x FLAG; expressed in transfected cells
Assay: FDSS-Based Intracellular Calcium Assay
Type: cell-based
Details: cells expressing GPR40, intracellular Ca2+ response
Experimental: FDSS-Based Intracellular Calcium Assay
Cell lines expressing GPR40 are generated using the pDEST 3× flag gene expression system and are cultured in culture medium comprising the following components: F12 (Gibco #11765), 10% lipid deprived fetal bovine serum, 250 μg/ml zeocin and 500 μg/ml G418. To conduct the fluorescent imaging plate reader (FLIPR)-based calcium flux assay to measure intracellular Ca^2+ response, cells expressing GPR40 are plated on 384 well plates (BD Biocoat #356697) at a density of 20,000 cells/20 μL medium per well in phenol red and serum-free DMEM (Gibco #21063-029) and incubated overnight. […] Compounds are dissolved in DMSO and diluted to desired concentrations with assay buffer and added to the cells as 3x solution (20 μL per well). Run fluorescence/luminescence reader FDSS (Hamamatsu) to read intracellular Ca^2+ response.

T1 sequence (O14842 whole entry): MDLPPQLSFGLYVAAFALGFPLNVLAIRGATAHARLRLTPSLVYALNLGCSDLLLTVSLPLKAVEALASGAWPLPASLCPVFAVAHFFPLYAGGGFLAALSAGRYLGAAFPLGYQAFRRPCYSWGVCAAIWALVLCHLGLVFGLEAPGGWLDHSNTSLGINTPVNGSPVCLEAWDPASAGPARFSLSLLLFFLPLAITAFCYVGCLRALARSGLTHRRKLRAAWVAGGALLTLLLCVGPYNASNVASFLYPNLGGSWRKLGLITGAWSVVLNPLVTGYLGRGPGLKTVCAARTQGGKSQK

| EC50 [µM] | Compound |
| --- | --- |
| 0.56 | Cc1ccccc1Oc1ccc(N2N=C(C#N)CC2CC(=O)O)cc1 (single isomer, unassigned) [Example 3, Isomer 2, 2-(3-cyano-1-(4-(o-tolyloxy)phenyl)-4,5-dihydro-1H-pyrazol-5-yl)acetic acid] |
| 0.91 | COc1ccc(F)c(-c2ccc(Oc3ccc(N4N=C(c5ncco5)CC4CC(=O)O)cc3)c(C)c2)c1 (single isomer, unassigned) [Example 8, Isomer 1, 2-(1-(4-(2′-fluoro-5′-methoxy-3-methylbiphenyl-4-yloxy)phenyl)-3-(oxazol-2-yl)-4,5-dihydro-1H-pyrazol-5-yl)acetic acid] |
| 1.16 | COc1ccc(F)c(-c2ccc(Oc3ccc(N4N=C(c5ncco5)CC4CC(=O)O)cc3)c(C)c2)c1 (single isomer, unassigned) [Example 8, Isomer 2, 2-(1-(4-(2′-fluoro-5′-methoxy-3-methylbiphenyl-4-yloxy)phenyl)-3-(oxazol-2-yl)-4,5-dihydro-1H-pyrazol-5-yl)acetic acid] |
| 0.19 | COc1cccc(-c2ccc(Oc3ccc(N4N=C(C(F)(F)F)CC4CC(=O)O)cc3)c(C)c2)c1 (single isomer, unassigned) [Example 9, Isomer 1, 2-(1-(4-(3′-methoxy-3-methylbiphenyl-4-yloxy)phenyl)-3-(trifluoromethyl)-4,5-dihydro-1H-pyrazol-5-yl)acetic acid] |
| 0.29 | COc1cccc(-c2ccc(Oc3ccc(N4N=C(C(F)(F)F)CC4CC(=O)O)cc3)c(C)c2)c1 (single isomer, unassigned) [Example 9, Isomer 2, 2-(1-(4-(3′-methoxy-3-methylbiphenyl-4-yloxy)phenyl)-3-(trifluoromethyl)-4,5-dihydro-1H-pyrazol-5-yl)acetic acid] |
| 0.07 | Cc1ccccc1Oc1ccc(N2N=C(C(F)(F)F)CC2CC(=O)O)cc1 (single isomer, unassigned) [Example 11, Isomer 1, 2-(1-(4-(o-tolyloxy)phenyl)-3-(trifluoromethyl)-4,5-dihydro-1H-pyrazol-5-yl)acetic acid] |
| 1.85 | Cc1ccccc1Oc1ccc(N2N=C(C(F)(F)F)CC2CC(=O)O)cc1 (single isomer, unassigned) [Example 11, Isomer 2, 2-(1-(4-(o-tolyloxy)phenyl)-3-(trifluoromethyl)-4,5-dihydro-1H-pyrazol-5-yl)acetic acid] |
| 0.165 | COc1ccc(F)c(-c2ccc(Oc3ccc(N4N=C(C(F)(F)F)CC4CC(=O)O)cc3)c(C)c2)c1 (single isomer, unassigned) [Example 14, Isomer 1, 2-(1-(4-(2′-fluoro-5′-methoxy-3-methylbiphenyl-4-yloxy)phenyl)-3-(trifluoromethyl)-4,5-dihydro-1H-pyrazol-5-yl)acetic acid] |
| 0.16 | COc1ccc(F)c(-c2ccc(Oc3ccc(N4N=C(C(F)(F)F)CC4CC(=O)O)cc3)c(C)c2)c1 (single isomer, unassigned) [Example 14, Isomer 2, 2-(1-(4-(2′-fluoro-5′-methoxy-3-methylbiphenyl-4-yloxy)phenyl)-3-(trifluoromethyl)-4,5-dihydro-1H-pyrazol-5-yl)acetic acid] |
| 0.27 | COc1cc(-c2ccc(Oc3ccc(N4N=C(C(F)(F)F)CC4CC(=O)O)cc3)c(C)c2)c(F)cn1 (single isomer, unassigned) [Example 15, Isomer 1, 2-(1-(4-(4-(5-fluoro-2-methoxypyridin-4-yl)-2-methylphenoxy)phenyl)-3-(trifluoromethyl)-4,5-dihydro-1H-pyrazol-5-yl)acetic acid] |
| 0.53 | COc1cc(-c2ccc(Oc3ccc(N4N=C(C(F)(F)F)CC4CC(=O)O)cc3)c(C)c2)c(F)cn1 (single isomer, unassigned) [Example 15, Isomer 2, 2-(1-(4-(4-(5-fluoro-2-methoxypyridin-4-yl)-2-methylphenoxy)phenyl)-3-(trifluoromethyl)-4,5-dihydro-1H-pyrazol-5-yl)acetic acid] |
| 0.67 | COc1ccc(F)c(-c2ccc(Oc3ccc(N4N=C(C(F)(F)F)CC4CC(=O)O)cc3)cc2C)c1 (single isomer, unassigned) [Example 16, Isomer 1, 2-(1-(4-(2′-fluoro-5′-methoxy-2-methylbiphenyl-4-yloxy)phenyl)-3-(trifluoromethyl)-4,5-dihydro-1H-pyrazol-5-yl)acetic acid] |
| 0.34 | COc1ccc(F)c(-c2ccc(Oc3ccc(N4N=C(C(F)(F)F)CC4CC(=O)O)cc3)cc2C)c1 (single isomer, unassigned) [Example 16, Isomer 2, 2-(1-(4-(2′-fluoro-5′-methoxy-2-methylbiphenyl-4-yloxy)phenyl)-3-(trifluoromethyl)-4,5-dihydro-1H-pyrazol-5-yl)acetic acid] |
| 0.15 | COc1ccc(F)c(-c2ccc(Cc3ccc(N4N=C(C(F)(F)F)CC4CC(=O)O)cc3)c(C)c2)c1 (single isomer, unassigned) [Example 17, Isomer 1, 2-(1-(4-((2′-fluoro-5′-methoxy-3-methylbiphenyl-4-yl)methyl)phenyl)-3-(trifluoromethyl)-4,5-dihydro-1H-pyrazol-5-yl)acetic acid] |
| 0.09 | COc1ccc(F)c(-c2ccc(Cc3ccc(N4N=C(C(F)(F)F)CC4CC(=O)O)cc3)c(C)c2)c1 (single isomer, unassigned) [Example 17, Isomer 2, 2-(1-(4-((2′-fluoro-5′-methoxy-3-methylbiphenyl-4-yl)methyl)phenyl)-3-(trifluoromethyl)-4,5-dihydro-1H-pyrazol-5-yl)acetic acid] |
| 0.58 | COc1ccc(F)c(-c2ccc(Cc3ccc(N4N=C(C(F)(F)F)CC4CC(=O)O)cc3)c(F)c2)c1 (single isomer, unassigned) [Example 19, Isomer 1, 2-(1-(4-((2′,3-difluoro-5′-methoxybiphenyl-4-yl)methyl)phenyl)-3-(trifluoromethyl)-4,5-dihydro-1H-pyrazol-5-yl)acetic acid] |
| 0.09 | COc1ccc(F)c(-c2ccc(Cc3ccc(N4N=C(C(F)(F)F)CC4CC(=O)O)cc3)c(F)c2)c1 (single isomer, unassigned) [Example 19, Isomer 2, 2-(1-(4-((2′,3-difluoro-5′-methoxybiphenyl-4-yl)methyl)phenyl)-3-(trifluoromethyl)-4,5-dihydro-1H-pyrazol-5-yl)acetic acid] |
| 0.47 | COc1ccc(F)c(-c2ccc(Cc3ccc(N4N=C(C(F)(F)F)CC4CC(=O)O)cc3)c(Cl)c2)c1 (single isomer, unassigned) [Example 20, Isomer 1, 2-(1-(4-((3-chloro-2′-fluoro-5′-methoxybiphenyl-4-yl)methyl)phenyl)-3-(trifluoromethyl)-4,5-dihydro-1H-pyrazol-5-yl)acetic acid] |
| 0.05 | COc1ccc(F)c(-c2ccc(Cc3ccc(N4N=C(C(F)(F)F)C[C@@H]4CC(=O)O)cc3)c(Cl)c2)c1 (single isomer, unassigned) [Example 20, Isomer 2] |
| 0.5 | COc1ccc(F)c(-c2cc(C)c(Cc3ccc(N4N=C(C(F)(F)F)CC4CC(=O)O)cc3)c(F)c2)c1 (single isomer, unassigned) [Example 21, Isomer 1, 2-(1-(4-((2′,3-difluoro-5′-methoxy-5-methylbiphenyl-4-yl)methyl)phenyl)-3-(trifluoromethyl)-4,5-dihydro-1H-pyrazol-5-yl)acetic acid] |
| 0.27 | COc1ccc(F)c(-c2cc(C)c(Cc3ccc(N4N=C(C(F)(F)F)CC4CC(=O)O)cc3)c(F)c2)c1 (single isomer, unassigned) [Example 21, Isomer 2, 2-(1-(4-((2′,3-difluoro-5′-methoxy-5-methylbiphenyl-4-yl)methyl)phenyl)-3-(trifluoromethyl)-4,5-dihydro-1H-pyrazol-5-yl)acetic acid] |
| 0.77 | COc1ccc(F)c(-c2ccc(Cc3ccc(N4N=C(C(F)(F)F)CC4CC(=O)O)cc3)cc2C)c1 (single isomer, unassigned) [Example 22, Isomer 1, 2-(1-(4-((2′-fluoro-5′-methoxy-2-methylbiphenyl-4-yl)methyl)phenyl)-3-(trifluoromethyl)-4,5-dihydro-1H-pyrazol-5-yl)acetic acid] |
| 0.35 | COc1ccc(F)c(-c2ccc(Cc3ccc(N4N=C(C(F)(F)F)CC4CC(=O)O)cc3)cc2C)c1 (single isomer, unassigned) [Example 22, Isomer 2, 2-(1-(4-((2′-fluoro-5′-methoxy-2-methylbiphenyl-4-yl)methyl)phenyl)-3-(trifluoromethyl)-4,5-dihydro-1H-pyrazol-5-yl)acetic acid] |
| 0.33 | COc1cccc(-c2ccc(Cc3ccc(N4N=C(C(F)(F)F)CC4CC(=O)O)cc3)c(C)c2)c1 (single isomer, unassigned) [Example 26, Isomer 1, 2-(1-(4-((3′-methoxy-3-methylbiphenyl-4-yl)methyl)phenyl)-3-(trifluoromethyl)-4,5-dihydro-1H-pyrazol-5-yl)acetic acid] |
| 0.12 | COc1cccc(-c2ccc(Cc3ccc(N4N=C(C(F)(F)F)CC4CC(=O)O)cc3)c(C)c2)c1 (single isomer, unassigned) [Example 26, Isomer 2, 2-(1-(4-((3′-methoxy-3-methylbiphenyl-4-yl)methyl)phenyl)-3-(trifluoromethyl)-4,5-dihydro-1H-pyrazol-5-yl)acetic acid] |
| 0.36 | COc1cc(-c2ccc(Cc3ccc(N4N=C(C(F)(F)F)CC4CC(=O)O)cc3)c(C)c2)c(F)cn1 (single isomer, unassigned) [Example 27, Isomer 1, 2-(1-(4-(4-(5-fluoro-2-methoxypyridin-4-yl)-2-methylbenzyl)phenyl)-3-(trifluoromethyl)-4,5-dihydro-1H-pyrazol-5-yl)acetic acid] |
